Reference: the Kinase Knowledgebase extract (Sharma et al. 2016)

Tests used:
[1] = target: EGFR (human) (UniProt P00533); conditions: hcc827
[2] = target: EGFR (human), P00533 [WT]
[3] = target: EGFR (human), P00533 [Inhibition of EGFR(L858RT/790M) Kinase Activity]
Sequence of EGFR (human), P00533 [Inhibition of EGFR(L858RT/790M) Kinase Activity] (P00533 whole entry, looked up, change not shown): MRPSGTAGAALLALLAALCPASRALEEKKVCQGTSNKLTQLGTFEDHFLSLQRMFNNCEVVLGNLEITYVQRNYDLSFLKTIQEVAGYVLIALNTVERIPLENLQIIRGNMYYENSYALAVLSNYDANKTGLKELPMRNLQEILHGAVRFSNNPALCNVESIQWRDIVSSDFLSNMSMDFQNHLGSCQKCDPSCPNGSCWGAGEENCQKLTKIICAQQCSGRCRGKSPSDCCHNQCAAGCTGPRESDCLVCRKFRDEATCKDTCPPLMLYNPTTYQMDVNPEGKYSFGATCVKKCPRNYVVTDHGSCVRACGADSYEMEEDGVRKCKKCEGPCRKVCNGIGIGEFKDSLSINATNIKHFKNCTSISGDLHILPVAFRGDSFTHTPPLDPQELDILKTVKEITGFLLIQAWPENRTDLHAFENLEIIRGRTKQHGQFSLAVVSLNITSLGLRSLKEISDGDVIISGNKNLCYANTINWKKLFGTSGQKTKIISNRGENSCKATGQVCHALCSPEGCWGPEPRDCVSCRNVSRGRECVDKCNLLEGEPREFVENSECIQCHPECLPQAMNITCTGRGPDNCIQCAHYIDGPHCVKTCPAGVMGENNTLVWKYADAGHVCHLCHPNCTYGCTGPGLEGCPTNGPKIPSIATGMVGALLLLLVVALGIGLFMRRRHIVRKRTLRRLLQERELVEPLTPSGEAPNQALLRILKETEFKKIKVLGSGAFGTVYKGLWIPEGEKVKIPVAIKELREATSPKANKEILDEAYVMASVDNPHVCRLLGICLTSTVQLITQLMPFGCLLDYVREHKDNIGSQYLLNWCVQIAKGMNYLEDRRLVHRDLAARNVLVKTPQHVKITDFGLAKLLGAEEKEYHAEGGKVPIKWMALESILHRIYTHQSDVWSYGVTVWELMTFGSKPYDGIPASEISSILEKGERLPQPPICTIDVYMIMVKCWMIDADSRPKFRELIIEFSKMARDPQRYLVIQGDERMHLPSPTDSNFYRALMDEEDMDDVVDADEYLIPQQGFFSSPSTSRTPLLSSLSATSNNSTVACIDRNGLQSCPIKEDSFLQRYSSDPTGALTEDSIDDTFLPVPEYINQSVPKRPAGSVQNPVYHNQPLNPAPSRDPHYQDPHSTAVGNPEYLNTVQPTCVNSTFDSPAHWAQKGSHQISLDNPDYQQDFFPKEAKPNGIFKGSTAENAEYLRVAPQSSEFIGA

Sequence of EGFR (human) (P00533 whole entry, looked up): as the sequence (P00533 whole entry, looked up, change not shown) above
Sequence of EGFR (human), P00533 [WT] (P00533 whole entry, looked up): as the sequence (P00533 whole entry, looked up, change not shown) above

Row | Structure (SMILES) | IC50 [1] [nM] | IC50 [2] [nM] | IC50 [3] [nM]
1 | C=CC(=O)Nc1ccc(-c2c(-c3ccccc3)oc3ncnc(N[C@H](CO)c4ccccc4)c23)cc1 | 301 to 999 | 60 to 100 | 
2 | C[C@@H](Nc1ncnc2sc3c(c12)CCN(C(=O)/C=C/CN(CCO)CCO)C3)c1ccccc1 | 1 to 99 | < 59 | 500 to 2500
3 | CCN(CC)C/C=C/C(=O)N1CCc2c(sc3ncnc(N[C@H](C)c4ccccc4)c23)C1 | 1 to 99 | < 59 | 500 to 2500
4 | CN(C)C/C=C/C(=O)N1CCc2c(sc3ncnc(N[C@H](COCc4ccccc4F)c4ccccc4)c23)C1 | 1 to 99 | < 59 | 500 to 2500
5 | CN(C)C/C=C/C(=O)N1CCc2c(sc3ncnc(N[C@H](COCc4ccccc4)c4ccccc4)c23)C1 | 1 to 99 | < 59 | 500 to 2500
6 | C[C@@H](Nc1ncnc2sc3c(c12)CCN(C(=O)/C=C/CN(C)C)C3)c1ccccc1 | 1 to 99 | < 59 | 500 to 2500
7 | C=CC(=O)N1CCc2c(sc3ncnc(N[C@H](COC)c4ccccc4)c23)C1 | 1 to 99 | < 59 | 10 to 499
8 | O=C(/C=C/CN1CCCCC1)N1CCc2c(sc3ncnc(N[C@H](CO)c4ccccc4)c23)C1 | 1 to 99 | < 59 | 500 to 2500
9 | C=CC(=O)Nc1cccc(-c2c(-c3ccccc3)oc3ncnc(N[C@H](COC(=O)C=C)c4ccccc4)c23)c1 |  | 101 to 900 | 10 to 499
10 | COCCN(C)C/C=C/C(=O)N1CCc2c(sc3ncnc(N[C@H](CO)c4ccccc4)c23)C1 |  | < 59 | 
11 | CC[C@@H](Nc1ncnc2oc(-c3ccccc3)cc12)c1ccccc1 | 301 to 999 |  | 
12 | CN(C)C/C=C/C(=O)N1CCc2c(sc3ncnc(N[C@H](COCc4ccncc4)c4ccccc4)c23)C1 | 1 to 99 | < 59 | 
13 | COc1ccc(-c2c(-c3ccccc3)oc3ncnc(N[C@H](CO)c4ccccc4)c23)cc1 | 100 to 300 | 101 to 900 | 
14 | C=C(CN(C)C)C(=O)N1CCc2c(sc3ncnc(N[C@H](CO)c4ccccc4)c23)C1 | 1 to 99 | 101 to 900 | 
15 | C=CC(=O)Nc1cccc(-c2coc3ncnc(N[C@H](CO)c4ccccc4)c23)c1 | 301 to 999 | 60 to 100 | 
16 | CN(C)C/C=C/C(=O)N1CCc2c(sc3ncnc(N[C@H](CCOCc4ccccc4F)c4ccccc4)c23)C1 | 1 to 99 | < 59 | 
17 | OC[C@@H](Nc1ncnc2oc(-c3ccccc3)c(-c3ccoc3)c12)c1ccccc1 | 100 to 300 | 101 to 900 | 
18 | C=CS(=O)(=O)N1CCc2c(sc3ncnc(N[C@H](CO)c4ccccc4)c23)C1 | 100 to 300 | 60 to 100 | 500 to 2500
19 | C=CC(=O)N1CCc2c(sc3ncnc(N[C@H](CO[Si](C)(C)C(C)(C)C)c4ccccc4)c23)C1 | 301 to 999 | 101 to 900 | 
20 | C[C@@H](Nc1ncnc2sc3c(c12)CCN(C(=O)/C=C/CN=[N+]=[N-])C3)c1ccccc1 | 1 to 99 | < 59 | 
21 | C=CC(=O)N1CCc2c(sc3ncnc(N[C@@H](CCO)c4ccccc4)c23)C1 | 301 to 999 | 101 to 900 | 500 to 2500
22 | C=CC(=O)Nc1ccc(-c2c(-c3ccccc3)oc3ncnc(N[C@H](C)c4ccccc4)c23)cc1 | 1 to 99 | 101 to 900 | 
23 | OC[C@@H](Nc1ncnc2sc3c(c12)CCCC3)c1ccccc1 | 100 to 300 | 101 to 900 | 
24 | C=CC(=O)N1CCc2c(sc3ncnc(N[C@H](CC)c4ccccc4)c23)C1 | 1 to 99 | < 59 | 500 to 2500
25 | OC[C@@H](Nc1ncnc2oc(-c3ccccc3)c(Cl)c12)c1ccccc1 |  | 101 to 900 | 
26 | C=CC(=O)N1CCc2c(sc3ncnc(N[C@H](COCc4cccc(C)c4)c4ccccc4)c23)C1 | 1 to 99 | < 59 | 10 to 499

Row | Structure (SMILES) | IC50 [1] [nM] | IC50 [2] [nM] | IC50 [3] [nM]
27 | CN(C)C/C=C/C(=O)N1CCc2c(sc3ncnc(Nc4ccc(F)c(Cl)c4)c23)C1 | 1 to 99 | < 59 | 10 to 499
28 | COc1ccc(-c2oc3ncnc(N[C@H](CO)c4ccccc4)c3c2-c2ccc(OC)cc2)cc1 |  | 60 to 100 | 
29 | C=CC(=O)N1CCc2c(sc3ncnc(N[C@H](C)c4ccccc4)c23)C1 | 1 to 99 | < 59 | 500 to 2500
30 | CCOC(=O)/C=C/C(=O)N1CCc2c(sc3ncnc(N[C@H](CO)c4ccccc4)c23)C1 | 1 to 99 |  | 
31 | O=C(O)[C@@H](Nc1ncnc2oc(-c3ccccc3)c(Br)c12)c1ccccc1 |  | < 59 | 
32 | CN(C)C/C=C/C(=O)N1CCc2c(sc3ncnc(N[C@H](COCc4ccccn4)c4ccccc4)c23)C1 | 1 to 99 | < 59 | 500 to 2500
33 | C=CC(=O)N1CCc2c(sc3ncnc(N[C@H](CCO)c4ccccc4)c23)C1 | 1 to 99 | < 59 | 10 to 499
34 | C=CC(=O)Nc1cccc(-c2cc3c(N[C@H](CO)c4ccccc4)ncnc3s2)c1 | 100 to 300 | < 59 | 
35 | C[C@@H](Nc1ncnc2sc3c(c12)CCN(C(=O)/C=C/CNN1CCCCC1)C3)c1ccccc1 | 1 to 99 | < 59 | 
36 | C[C@@H](Nc1ncnc2sc3c(c12)CCN(C(=O)/C=C/CN(C)C)C3)c1ccc(Br)cc1 | 1 to 99 | < 59 | 
37 | CCN(CC)C/C=C/C(=O)N1CCc2c(sc3ncnc(N[C@H](COC)c4ccccc4)c23)C1 | 1 to 99 | 60 to 100 | 
38 | CN(C)C/C=C/C(=O)N1CCc2c(sc3ncnc(N[C@H](COCc4cccnc4)c4ccccc4)c23)C1 | 1 to 99 | < 59 | 
39 | O=C(/C=C/CN1CCOCC1)N1CCc2c(sc3ncnc(N[C@H](CO)c4ccccc4)c23)C1 | 1 to 99 | < 59 | 500 to 2500
40 | OC[C@@H](Nc1ncnc2oc(-c3ccccc3)c(-c3ccco3)c12)c1ccccc1 | 301 to 999 | 101 to 900 | 
41 | CCN(C/C=C/C(=O)N1CCc2c(sc3ncnc(N[C@H](C)c4ccccc4)c23)C1)CCO | 1 to 99 | < 59 | 
42 | OC[C@@H](Nc1ncnc2sc(-c3ccccc3)c(Cl)c12)c1ccccc1 |  | 101 to 900 | 
43 | CN(C)C/C=C/C(=O)N1CCc2c(sc3ncnc(N[C@H](COCc4cccc(F)c4)c4ccccc4)c23)C1 | 1 to 99 | < 59 | 10 to 499
44 | C=CC(=O)Nc1ccc(-c2nc3c(N[C@H](CO)c4ccccc4)ncnc3o2)cc1 |  | 101 to 900 | 
45 | CC(=O)Nc1cccc(-c2c(-c3ccccc3)oc3ncnc(N[C@H](CO)c4ccccc4)c23)c1 | 100 to 300 | 101 to 900 | 
46 | CC(C)NC/C=C/C(=O)N1CCc2c(sc3ncnc(N[C@H](C)c4ccccc4)c23)C1 | 1 to 99 | 101 to 900 | 
47 | C=CC(=O)Nc1cccc(-c2c(-c3ccccc3)oc3ncnc(N(C)[C@H](COC)c4ccccc4)c23)c1 |  | 101 to 900 | 
48 | CCN(CC)C/C=C/C(=O)N1CCc2c(sc3ncnc(N[C@H](CCO)c4ccccc4)c23)C1 |  | < 59 | 
49 | C=CC(=O)Nc1cccc(-c2csc3ncnc(N[C@H](CO)c4ccccc4)c23)c1 | 1 to 99 | < 59 | 
50 | CC(=O)OC/C=C/C(=O)N1CCc2c(sc3ncnc(N[C@H](C)c4ccccc4)c23)C1 | 1 to 99 | < 59 | 
51 | OC[C@@H](Nc1ncnc2sc3c(c12)CCC3)c1ccccc1 | 301 to 999 |  | 
52 | CN(C)C/C=C/C(=O)N1CCc2c(sc3ncnc(N[C@H](COCc4ccc(F)cc4)c4ccccc4)c23)C1 | 1 to 99 | < 59 | 

Row | Structure (SMILES) | IC50 [1] [nM] | IC50 [2] [nM] | IC50 [3] [nM]
53 | COC(=O)[C@@H](Nc1ncnc2oc(-c3ccccc3)c(-c3ccccc3)c12)c1ccccc1 | 301 to 999 |  | 
54 | C/C=C/C(=O)N1CCc2c(sc3ncnc(N[C@H](COCc4cccc(F)c4)c4ccccc4)c23)C1 |  | 60 to 100 | 
55 | O=C(O)[C@@H](Nc1ncnc2sc3c(c12)CCC3)c1ccccc1 |  | 101 to 900 | 
56 | CCOC(=O)[C@@H](Nc1ncnc2oc(-c3ccccc3)c(-c3ccccc3)c12)c1ccccc1 | 301 to 999 |  | 
57 | CCC[C@@H](Nc1ncnc2sc3c(c12)CCN(C(=O)/C=C/CN(C)C)C3)c1ccccc1 | 1 to 99 | < 59 | 
58 | CN(C)C/C=C/C(=O)N1CCc2c(sc3ncnc(N[C@H](CCO)c4ccccc4)c23)C1 | 1 to 99 | < 59 | 
59 | C[C@@H](Nc1ncnc2sc3c(c12)CCN(C(=O)/C=C/CNc1ccccc1)C3)c1ccccc1 | 301 to 999 | 101 to 900 | 
60 | CN(C)C/C=C/C(=O)N1CCc2c(sc3ncnc(N[C@H](CO)Cc4ccccc4)c23)C1 | 1 to 99 | 101 to 900 | 
61 | CC(=O)OC[C@@H](Nc1ncnc2oc(-c3ccccc3)c(Br)c12)c1ccccc1 | 301 to 999 |  | 
62 | CC[C@@H](Nc1ncnc2oc(-c3ccccc3)c(-c3ccccc3)c12)c1ccccc1 | 301 to 999 |  | 
63 | COC[C@@H](Nc1ncnc2sc3c(c12)CCN(C(=O)/C=C/CN(C)C)C3)c1ccccc1 |  | < 59 | 
64 | O=C(O)[C@@H](Nc1ncnc2sc3c(c12)CCCC3)c1ccccc1 |  | 101 to 900 | 
65 | CC[C@@H](Nc1ncnc2sc3c(c12)CCCC3)c1ccccc1 | 301 to 999 | 101 to 900 | 
66 | CC(=O)OC[C@@H](Nc1ncnc2sc3c(c12)CCN(C(=O)/C=C/CN(C)C)C3)c1ccccc1 |  | < 59 | 
67 | Cc1sc2ncnc(N[C@H](CO)c3ccccc3)c2c1C | 301 to 999 |  | 
68 | O=C(O)[C@@H](Nc1ncnc2sc(-c3ccccc3)cc12)c1ccccc1 |  | 101 to 900 | 
69 | CN(C)C/C=C/C(=O)N1CCc2c(sc3ncnc(N[C@H](CO[Si](C)(C)C(C)(C)C)c4ccccc4)c23)C1 | 301 to 999 | 60 to 100 | 
70 | CC#CC(=O)Nc1cccc(-c2c(-c3ccccc3)oc3ncnc(N[C@H](COC)c4ccccc4)c23)c1 |  | 101 to 900 | 
71 | O=C(O)/C=C\C(=O)N1CCc2c(sc3ncnc(N[C@H](CO)c4ccccc4)c23)C1 |  | 101 to 900 | 
72 | O=C(O)[C@@H](Nc1ncnc2oc(-c3ccccc3)c(-c3ccccc3)c12)c1ccccc1 |  | < 59 | 
73 | OC[C@@H](Nc1ncnc2oc(-c3ccccc3)c(-c3ccccc3)c12)c1ccccc1 | 301 to 999 | 101 to 900 | 
74 | CC(=O)Nc1ccc(-c2c(-c3ccccc3)oc3ncnc(N[C@H](CO)c4ccccc4)c23)cc1 | 100 to 300 | 60 to 100 | 
75 | C[C@@H](Nc1ncnc2sc3c(c12)CCN(C(=O)/C=C/CN(C)CCO)C3)c1ccccc1 | 1 to 99 | < 59 | 
76 | OC[C@@H](Nc1ncnc2sc(-c3ccccc3)cc12)c1ccccc1 |  | 101 to 900 | 
